Assay results from patent publication US10344330B2, “Glatiramer acetate response biomarker mRNA potency assay” (Mylan Inc., priority 2013, dated 2019).
Values joined by “and” are separate entries in the source; they are usually repeats but may differ in a detail not shown here. Equal entries are not always repeated.

B1: MBP: myelin basic protein, a negative control (protein, UniProt P02686 1-304, looked up)
Myelin basic protein: MGNHAGKRELNAEKASTNSETNRGESEKKRNLGELSRTTSEDNEVFGEADANQNNGTSSQDTAVTDSKRTADPKNAWQDAHPADPGSRPHLIRLFSRDAPGREDNTFKDRPSESDELQTIQEDSAATSESLDVMASQKRPSQRHGSKYLATASTMDHARHGFLPRHRDTGILDSIGRFFGGDRGAPKRGSGKDSHHPARTAHYGSLPQKSHGRTQDENPVVHFFKNIVTPRTPPPSQGKGRGLSLSRFSWGAEGQRPGFGYGGRASDYKSAHKGFKGVDAQGTLSKIFKLGGRDSRSGSPMARR

Legend:
[1] = system: IL-2 secreted by LN cells; test: IL-2 secretion by GA-stimulated LN cells, MSD 9-plex ELISA (Example II); format: cell-based, mouse; conditions: 21 hr
Method: Animals at 8 weeks of age were immunized by injection into four footpads using a 1 mL syringe with a 27-G, 1⁄2-inch needle. […] Ten days post-immunization, immunized animals were sacrificed via cervical dislocation. […] The LN cells were isolated by pressing the LN with the plunger end of a sterile syringe. […] Trypan blue exclusion method was used to determine the cell density of viable cells in the suspension. […] Cat. […] LN cells were plated into a 24-well tissue culture plate for drug stimulation. […] Cell debris was removed by centrifugation at ca. 200×g for 10 minutes at 4° C. Cytokines secreted by treated cells were determined on the day of collection by ELISA using mouse TH 1/TH 2 9-Plex Tissue Culture Kit (Meso Scale Discovery; Cat No. […]-2, Lot #: K0032839) which detects Th1 cytokines (IFN-γ, IL-2, IL-12, IL-1β, TNF-α, CXCL1) and Th2 cytokines (IL-4, IL-5 and IL-10). For IFN-γ, culture media also were assayed at 45 hours using mouse IFN-γ Tissue Culture Kit (Meso Scale Discovery; Cat No. […] For the positive control, 0.5 mL of LN cells (5×10^6 cells/well) were treated with 0.5 mL of ConA (5 μg/mL). For the negative control, 0.5 mL of LN cells (5×10^6 cells/well) were treated with 0.5 mL of MBP (20 μg/mL). The LN cells with mock stimulation (enriched DCCM1 medium) were used to monitor the background level of a cytokine. For the cytokine assays, calibration standards or samples were incubated in the MULTI-SPOT or the SINGLE-SPOT plate and each cytokine bound to its corresponding capture antibody. All test samples were run in duplicate. The amount of each cytokine on its distinct spot was quantified using a cytokine-specific detection antibody labeled with MSD SULFO-TAGTM reagent. Electrochemiluminescent signals from immobilized SULFO-TAGTM-labeled complexes on each spot from each well were captured by the MSD SECTOR Imager 6000, which produces a signal directly proportional to the amount of captured cytokine in a test sample. The levels of cytokines in test samples were derived by interpolation from calibration curves with calibration standards of known concentrations using reagents provided with the MSD kits. Kits were used according to the manufacturer's protocols. […] Data are expressed as a response ratio of cytokine concentration in treated cell medium to control DCCM1 medium.

[2] = system: mouse IL-5 mRNA in primary LN cells; test: Mouse IL-5 mRNA in LN cells of immunized SJL/J mice stimulated with Copaxone and GMA lots, normalized to Actβ or GAPDH (Example V); format: cell-based
Method: A real-time polymerase chain reaction method was used to measure the expression of cytokine mRNA in GA-stimulated LN cells from GA-immunized SJL/J mice. Normalization of expression with two different housekeeping genes, GAPDH and β-actin, was tested.
Each group consisted of six female SJL/J mice immunized by injection in all four footpads with a total dose of 250 μg of one lot of GA, or mannitol and no GA. Three Copaxone batches and three GMA batches were used to immunize the mice. CFA was included in both GA and mannitol immunizations. Ten days following immunization, LN cell samples isolated from the immunized mice were each stimulated with a concentration of a Copaxone lot and a GMA lot. A positive control of 2.5 μg/mL ConA treated LN cells and a negative control of 10 μg/mL MBP treated cells were included in each group.
In the initial run, a lack of reproducibility was observed when cytokine mRNA levels were normalized to GAPDH mRNA levels. Therefore, the Q-PCR analysis was repeated on the samples, measuring levels of IL-2, IL-4, IL-5, and IL-13, using both GAPDH and β-actin as reference gene.
The RNA isolation and analysis procedures were similar to those described in Example IV. The expression levels of mouse IL-2, IL-4, IL-5 and IL-13 mRNA observed are summarized below in Tables 29 to 36. As shown by the data in Tables 30, 32, 34 and 36, a lack of reproducibility in the findings again was observed when cytokine mRNA levels were normalized to GAPDH mRNA for all cytokines except IL-13.

[3] = system: mouse IL-17 mRNA in primary LN cells; test: Mouse IL-17 mRNA in LN cells of Copaxone P53974-immunized CSJLF1/JRj mice stimulated with GA lots (Example VIII); format: cell-based; conditions: stimulation conc. 2.5 μg/mL; for IL-17 mRNA/B-Actin Fold Change: normalized to B-Actin; for IL-17 mRNA/GAPDH Fold Change: normalized to GAPDH
Method: [The procedure below names another target; the source lists this target under the same test.] A real-time polymerase chain reaction method was used to measure the expression of IL-2, IL-4, IL-5, and IL-13 mRNA in LN cells, from GA-immunized mice, following stimulation with one of twelve GA lots. One lot of GA (Copaxone P53974) was used for immunization. […] Twenty female CSJLF1/JRj mice (Janvier Labs), approximately 8-12 weeks of age, were immunized by injection of 0.1 mL injection volume into four footpads (about 10 μL into each of the front footpad, 40 μL into each of the hind footpad) on Day 0. […] Samples were prepared using TaqMan Universal PCR Master Mix II (Life Technologies) and run in 96-well plates using a Real-Time PCR system (7500, Life Technologies) using the following RT-PCR program: The levels of cytokine mRNA were calculated using a standard ΔΔCT method as described previously.

[4] = BALB/cByJ, immunized GA Intraplantar
[5] = BALB/cByJ, immunized Mannitol Intraplantar
[6] = C57BL10J, immunized Mannitol Intraplantar
[7] = CD-1, immunized GA Intraplantar
[8] = CD-1, immunized Mannitol Intraplantar
[9] = relative to DCCM1 medium control

Molecule	IL-2 secretion response ratio (treated cell medium to control DCCM1 medium) [1, 4]	IL-2 secretion response ratio (treated cell medium to control DCCM1 medium) [1, 5]	IL-2 secretion response ratio (treated cell medium to control DCCM1 medium) [1, 6]	IL-2 secretion response ratio (treated cell medium to control DCCM1 medium) [1, 7]	IL-2 secretion response ratio (treated cell medium to control DCCM1 medium) [1, 8]	IL-5 mRNA Fold Change ([2]; Group 3 (mice immunized with GA-M2 Mylan GMA), 2.5 μg/mL, normalized to Actβ) [fold]	IL-5 mRNA Fold Change ([2]; Group 4 (mice immunized with GA-C2 Copaxone), 2.5 μg/mL, normalized to Actβ) [fold]	IL-5 mRNA Fold Change ([2]; Group ID 3, 2.5 μg/mL, normalized to GAPDH) [fold]	IL-5 mRNA Fold Change ([2]; Group ID 4, 2.5 μg/mL, normalized to GAPDH) [fold]	IL-17 mRNA/B-Actin Fold Change [3]	IL-17 mRNA/B-Actin Fold Change [3, 9]	IL-17 mRNA/GAPDH Fold Change [3]	IL-17 mRNA/GAPDH Fold Change [3, 9]	IL-5 mRNA Fold Change ([2]; Group 3 (mice immunized with GA-M2 Mylan GMA), 10 μg/mL, normalized to Actβ) [fold]	IL-5 mRNA Fold Change ([2]; Group 4 (mice immunized with GA-C2 Copaxone), 10 μg/mL, normalized to Actβ) [fold]	IL-5 mRNA Fold Change ([2]; Group ID 3, 10 μg/mL, normalized to GAPDH) [fold]	IL-5 mRNA Fold Change ([2]; Group ID 4, 10 μg/mL, normalized to GAPDH) [fold]
Concanavalin A [ConA, reference compound]	229.32	281.66	28.71	85.01	68.22	19.1	27.8	21.1	59.4	133.2 fold and 224.2 fold and 128.3 fold and 204.1 fold	67.2 and 83.0 and 70.9 and 64.8	125.8 fold and 208.6 fold and 139.9 fold and 213.0 fold	102.6 and 104.0 and 78.8 and 83.6				
B1	0.97	0.97	0.98	0.98	1.28									0.6	1.1	0.6	2.3
